Where two headings read alike, the source gives them in different places.
Experiments:
[1] = system: human OPN promoter (pOPN1-luc) in A549/OPNluc cells; test: Luciferase assay: luciferase expression under control of OPN promoter; type: cell-based; conditions: Homo sapiens
Excerpt: (§1) A reporter vector pOPN1-luc obtained by the insertion of a human OPN promoter sequence (−765 to 23) into the multiple cloning site of pGL-3 basic vector (Promega) expresses luciferase when transfected into animal cells. The pOPN1-luc was transfected into a human non-small cell lung cancer-derived cell line A549 together with pPUR (Clontech) that expresses a puromycin resistance gene (puromycin-N-acetyl-transferase gene), and then cells expressing luciferase which could grow a puromycin-supplemented medium were selected. The selected cells were named “A549/OPNluc cells” and used for observation of luciferase expression inhibitory effect under control of OPN promoter, as described below.
(§2) A test compound was added to a culture containing A549/OPNluc cells to observe its influence on the amount of luciferase expressed in the cells. Here, it can be considered that when the test compound has a cell cytotoxity or cell growth inhibitory effect, the total expression level of luciferase is reduced due to a reduction in the number of living cells that depends on the concentration of the test compound, and therefore the luciferase expression inhibitory effect of the test compound under control of OPN promoter cannot be properly evaluated. For this reason, WST assay for quantification of cell proliferation ability or cell viability by colorimetric measurement was firstly performed to determine IC50 (concentration for 50% inhibition of cell growth) of the test compound for cell growth. Then, luciferase activity measurement was performed to determine EC50 (concentration for 50% inhibition of luciferase expression) of the test compound for luciferase expression under control of OPN promoter.
The same steps as in the above-mentioned WST assay were performed in which each solution of only DMSO (control) or the diluted test compound (sample) was added in an amount of 0.5 μL to each well containing the cell suspension to achieve 200-fold dilution, and the solution in each well was mixed with a vortex mixer, and the 96-well plate was incubated in a CO2 incubator (at 37° C. and 5% CO2) for 48±4 hours.
Luciferase Assay Substrate (hereinafter referred to as “LAS”) supplied in Luciferase Assay Systems (Promega: Cat #E1500) was dissolved in Luciferase Assay Buffer (LAB) to prepare a luciferase reagent. 5×Cell Culture Lysis Reagent (hereinafter referred to as “CCLR”) was diluted by 5 times with water to prepare 1×CCLR.
After the incubation for 48±4 hours, the medium in each well was completely removed, and 1×CCLR was dispensed into each well in an amount of 50 μL. The 96-well plate was allowed to stand at room temperature for 30 minutes, and then 1×CCLR in each well was used as an assay sample. The luciferase reagent (100 μL) was placed in a tube for chemiluminescence measurement, and the assay sample (20 μL) was added to the tube and mixed with the luciferase reagent to measure chemiluminescence (Relative Luminescence Intensity: RLU) using TB 20/20 (Promega) or GloMax 20/20 (Promega).
The RLU values of the control wells and the sample wells at each concentration were input into an Excel file, and the percentages of RLU values of the sample wells at each concentration to the average RLU value of the control wells were determined. From these values, a fitted curve was determined by the method of least squares to calculate EC50. Also, the percentages of RLU values of the sample wells at each concentration to the average RLU value of the control wells were divided by the percentages of absorbance values of the compounds in WST assay at the same concentrations as those of this assay (to the control), and a fitted curve was determined from the calculated values by the method of least squares to calculate corrected EC50.

A549/OPNluc cells = test: WST assay for cell growth / cell viability; type: cell-based, human; conditions: Homo sapiens, A549, A549/OPNluc cells, 48±4 hours, WST-1; read-out: IC50 (concentration for 50% inhibition of cell growth)
Excerpt: as §1, §2
A549/OPNluc cells were suspended in DMEM medium containing 10% fetal calf serum (FCS) and 1% penicillin/streptomycin (P/S) at 3×10^4 cells/mL to obtain a cell suspension, and then the cell suspension was dispensed into each well of a 96-well plate in an amount of 100 μL. In order to perform the assay in triplicate, wells were prepared for a control group, and 3 wells were prepared for each test compound-treated group at each concentration. After the dispensation, the 96-well plate was incubated in a CO2 incubator (at 37° C. and 5% CO2) for 24±4 hours.
The present compound was dissolved in dimethylsulfoxide (DMSO) to obtain a 50 mmol/L solution, and the compound solution was stored at −80° C. The compound solution was diluted with DMSO in 2-fold dilution series (usually, in the range of 0.31 mmol/L to 20 mmol/L) to prepare test compound solutions whose concentration varied by two fold for WST assay.
Each solution of only DMSO (control) and the diluted test compound (sample) was dispensed into each well containing the cell suspension in an amount of 0.5 μL (200-fold dilution). The solution in each well was mixed with a vortex mixer, and then the 96-well plate was incubated in a CO2 incubator (at 37° C. and 5% CO2) for 48±4 hours. Then, Premix WST-1 Reagent (TAKARA BIO INC.) was added in an amount of 10 μL to each well. The solution in each well was mixed with a vortex mixer, and then the 96-well plate was incubated at 37° C. and 5% CO2. After 60 minutes or 120 minutes, the absorbance values (450 nm) were measured with a microplate reader (Bio-Rad; Benchmark or Thermo Scientific; Varioskan Flash).
The absorbance values of the control wells and the sample wells at each concentration were input into an Excel file to determine the percentages of absorbance values of the sample wells at each concentration with to the average absorbance value of the control wells. From the determined values, a fitted curve was determined by the method of least squares to calculate IC50.

[2] = A549, A549/OPNluc cells, 48±4 hours, read-out: EC50 (concentration for 50% inhibition of luciferase expression)
[3] = A549, EC50 corrected for decrease in viable cells (RLU % divided by WST %), read-out: corrected EC50

| Compound | EC50 [1, 2] | EC50 [1, 3] | IC50 (A549/OPNluc cells) |
| --- | --- | --- | --- |
| O=C(NCCC(=O)c1cccc(O)c1O)c1ccc(Oc2ccc(O)cc2)cc1 [Compound 3, N-(3-(2,3-Dihydroxyphenyl)-3-oxopropyl)-4-(4-hydroxyphenoxy)benzamide] | 32.2 µM | 103 µM | 32.5 µM |
| O=C(Nc1cccc(Oc2ccc(Cl)cc2)c1)C1CCCN(C(=O)c2ccc(O)cc2)C1 (centres unmarked) [Compound 33, N-(3-(4-Chlorophenoxy)phenyl)-1-(4-hydroxyphenylcarbonyl)piperidine-3-carboxamide] | 8.5 µM | 11.1 µM | 25.9 µM |
| Nc1c(Oc2ccc(C(F)(F)F)cc2)cccc1C(=O)CCNC(=O)c1ccc(O)cc1 [Compound 15, N-(3-(2-Amino-3-(4-(trifluoromethyl)phenoxy)phenyl)-3-oxopropyl)-4-hydroxybenzamide] | 5.6 µM | 5.3 µM | 35.4 µM |
| CC(=O)NCCC(=O)c1cccc(Oc2ccc(O)cc2)c1N [Compound 8, N-(3-(2-Amino-3-(4-hydroxyphenoxy)phenyl)-3-oxopropyl)-acetamide] | > 100 µM |  | > 100 µM |
| Nc1c(O)cccc1C(=O)CCNC(=O)c1ccc(O)cc1 [Compound 13, N-(3-(2-Amine-3-hydroxyphenyl)-3-oxopropyl)-4-hydroxybenzamide] | > 200 µM |  | > 200 µM |
| COc1ccc(Oc2ccccc2NC(=O)CCNC(=O)c2ccc(O)cc2)cc1 [Compound 29, N-(3-(2-(4-methoxyphenoxy)phenylamino)-3-oxopropyl)-4-hydroxybenzamide] | 51.4 µM | 62.1 µM | > 100 µM |
| Nc1c(Oc2ccc(O)cc2)cccc1C(=O)CCNC(=O)C1CCOCC1 [Compound 11, N-(3-(2-Amino-3-(4-hydroxyphenoxy)phenyl)-3-oxopropyl)-(tetrahydro-2H-pyran-4-yl)-carboxamide] | 166 µM |  | 200 µM |
| O=C(CCNC(=O)c1ccncc1)Nc1cccc(Oc2ccc(Cl)cc2)c1 [Compound 37, N-(3-(3-(4-Chlorophenoxy)phenylamino)-3-oxopropyl)pyridine-4-carboxamide] | 15.6 µM | 20.9 µM | 60.1 µM |
| Nc1c(Oc2ccc(Cl)cc2)cccc1C(=O)CCNC(=O)c1ccc(O)cc1 [Compound 17, N-(3-(2-Amino-3-(4-chlorophenoxy)phenyl)-3-oxopropyl)-4-hydroxybenzamide] | 3.7 µM | 4.2 µM | 47.7 µM |
| Nc1c(Oc2ccc(O)cc2)cccc1C(=O)CCNC(=O)C1CCCCC1 [Compound 10, N-(3-(2-Amino-3-(4-hydroxyphenoxy)phenyl)-3-oxopropyl)-cyclohexanecarboxamide] | 31.5 µM | 41.7 µM | 52.8 µM |
| COc1ccc(Oc2ccccc2C(=O)NCCNC(=O)c2ccc(O)cc2)cc1 [Compound 22, N-(2-(2-(4-Methoxyphenoxy)benzoylamino)ethyl)-4-hydroxybenzamide] | 42.2 µM | 50.4 µM | > 100 µM |
| COc1cccc(C(=O)NCCC(=O)c2cccc(Oc3ccc(O)cc3)c2N)c1 [Compound 7, N-(3-(2-Amino-3-(4-hydroxyphenoxy)phenyl)-3-oxopropyl)-3-methoxybenzamide] | 35.6 µM | 43.7 µM | 63.3 µM |
| Nc1c(Oc2ccc(O)cc2)cccc1C(=O)CCNC(=O)c1ccc(O)cc1 [Compound 1, N-(3-(2-Amino-3-(4-hydroxyphenoxy)phenyl)-3-oxopropyl)-4-hydroxybenzamide] | 17.1 µM | 24.5 µM | 65.9 µM |
| O=C1NCCc2c1[nH]c1c(Oc3ccc(O)cc3)cccc21 [Compound 18, 8-(4-Hydroxyphenoxy)-1,2,3,4-tetrahydro-β-carboline-1-one] | > 50 µM |  | 49.4 µM |
| COc1ccc(Oc2ccc(NC(=O)CCNC(=O)c3ccc(O)cc3)cc2)cc1 [Compound 30, N-(3-(4-(4-methoxyphenoxy)phenylamino)-3-oxopropyl)-4-hydroxybenzamide] | 7 µM | 12.6 µM | 52.3 µM |
| O=C(CCNC(=O)c1ccc(O)cc1)Nc1cccc(Oc2ccc(Cl)cc2)c1 [Compound 24, N-(3-(3-(4-Chlorophenoxy)phenylamino)-3-oxopropyl)-4-hydroxybenzamide] | 7.5 µM | 11.4 µM | 29.4 µM |
| Cc1ccc(Oc2cccc(C(=O)CCNC(=O)c3ccc(O)cc3)c2N)cc1 [Compound 14, N-(3-(2-Amino-3-(4-methylphenoxy)phenyl)-3-oxopropyl)-4-hydroxybenzamide] | 5.6 µM | 5 µM | 61.1 µM |
| O=C(Nc1cccc(Oc2ccc(Cl)cc2)c1)C1CCCN1C(=O)c1ccc(O)cc1 (centres unmarked) [Compound 34, N-(3-(4-Chlorophenoxy)phenyl)-1-(4-hydroxyphenylcarbonyl)pyrrolidine-2-carboxamide] | 24.9 µM | 32.9 µM | 55.1 µM |
| O=C(CCNC(=O)c1ccsc1)Nc1cccc(Oc2ccc(Cl)cc2)c1 [Compound 36, N-(3-(3-(4-Chlorophenoxy)phenylamino)-3-oxopropyl)thiophene-3-carboxamide] | 22 µM | 31.2 µM | 43.3 µM |
| COc1ccc(C(=O)NCCC(=O)c2cccc(Oc3ccc(O)cc3)c2N)cc1 [Compound 4, N-(3-(2-Amino-3-(4-hydroxyphenoxy)phenyl)-3-oxopropyl)-4-methoxybenzamide] | 27.6 µM | 37 µM | 67.1 µM |
| Nc1c(Oc2ccc(O)cc2)cccc1C(=O)CCNC(=O)c1ccc(F)cc1 [Compound 9, N-(3-(2-Amino-3-(4-hydroxyphenoxy)phenyl)-3-oxopropyl)-4-fluorobenzamide] | 41.5 µM | 65.6 µM | 93.7 µM |
| O=C(CCNC(=O)c1cccs1)Nc1cccc(Oc2ccc(Cl)cc2)c1 [Compound 35, N-(3-(3-(4-Chlorophenoxy)phenylamino)-3-oxopropyl)thiophene-2-carboxamide] | 23.8 µM | 41.4 µM | 74.6 µM |
| COc1ccc(Oc2cccc(C(=O)CCNC(=O)c3ccc(OC)cc3)c2N)cc1 [Compound 5, N-(3-(2-Amino-3-(4-methoxyphenoxy)phenyl)-3-oxopropyl)-4-methoxybenzamide] | 19.5 µM | 22.6 µM | 64.9 µM |

— US11040937B2, “Amide derivative” (TOHOKU UNIVERSITY, priority 2014, dated 2021)
